From US9622990B2, “Method for inhibiting cancer cell growth” (priority 2013, dated 2017)
In brackets after ≈: the same amount, converted by molar mass.

Key:
Type in all cases: cell-based
[1] = tested on: MDCK cell line (kidney from canine); experiment: MTT cell viability assay, MDCK; conditions: Canis lupus familiaris, 48 hours, read-out: half maximal inhibitory concentration (IC50), MDCK
Method: (§1) Cell proliferation of A549 cell line (lung cancer), CT26 cell line (colon cancer), DU145 cell line (prostate cancer), HepG2 cell line (liver cancer), MDCK cell line (kidney from canine), PC3 cell line (prostate cancer), MDA-MB-231 cell line (breast cancer) and MCF-7 cell line (breast cancer) was assessed by MTT cell viability assay.
(§2) Above cell lines were cultured in determined medium for 24 hours. Proliferative cells were washed with PBS solution, treated with trypsin-EDTA (1×), centrifuged at 1,200 rpm for 5 min, precipitated the cells and discarded supernatant. The cells were resuspended with 10 ml of fresh medium, and then loaded to 96-well plate. While the assay initiated, 0.01˜200 μg/ml of Antrodia camphorata extract was added in each well, and the plate was incubated for 48 hours, at 37° C., 5% CO2. Each wall was added with 2.5 mg/ml MTT reagent in the dark. After 4 hours of reaction, 100 μl lysis buffer were added to each wall to terminate the reaction. […] The experiment data was represented by means±SD. All data was statistically analyzed by paired-t test, and a P-value less than 0.05 was considered significant.

[2] = tested on: PC3 cell line (prostate cancer); experiment: MTT cell viability assay, PC3; conditions: Homo sapiens, PC-3, 48 hours, read-out: half maximal inhibitory concentration (IC50), PC3
Method: as §1, §2

[3] = tested on: DU145 cell line (prostate cancer); experiment: MTT cell viability assay, DU145; conditions: Homo sapiens; DU-145, MTT, 48 hours; read-out: half maximal inhibitory concentration (IC50), DU-145
Method: as §1, §2

[4] = tested on: A549 cell line (lung cancer); experiment: MTT cell viability assay, A549; conditions: Homo sapiens, 48 hours, read-out: half maximal inhibitory concentration (IC50), A549
Method: as §1, §2

various tumor cells = experiment: MTT cell viability assay, statements over all cell lines; conditions: for anti cancer activity, in words: summary of table 9
Method: as §1, §2
The symbols used in tables respectively represent: 0˜25% cell viability: +/−; 25˜50% cell viability: +; 50˜75% cell viability: ++, 75˜100% cell viability: +++, >100% cell viability: ++++. […] In this experiment, when the drug concentration was diluted to […], DMSO concentration was 0.5%.
Accordingly, above extracts can be used for treating cancers, such as lung cancer, colon cancer, prostate cancer, liver cancer and breast cancer, and the effective compounds contained in those extracts also can be purified.
The half maximal inhibitory concentration (IC50) is a measure of the effectiveness of a compound in inhibiting biological or biochemical function. This quantitative measure indicates how much of a particular drug or other substance (inhibitor) is needed to inhibit a given biological process (e.g. cell apoptosis-inducing activity of a compound) by half. […]

[5] = tested on: HepG2 cell line (liver cancer); experiment: MTT cell viability assay, HepG2; conditions: Homo sapiens, 48 hours, read-out: half maximal inhibitory concentration (IC50), HepG2
Method: as §1, §2

[6] = tested on: MCF-7 cell line (breast cancer); experiment: MTT cell viability assay, MCF-7; conditions: Homo sapiens, MCF7; MCF-7, MTT, 48 hours; read-out: half maximal inhibitory concentration (IC50), MCF-7
Method: as §1, §2

[7] = tested on: MDA-MB-231 cell line (breast cancer); experiment: MTT cell viability assay, MDA-MB-231; conditions: Homo sapiens; MDA-MB-231, MTT, 48 hours; read-out: half maximal inhibitory concentration (IC50), MDA-MB-231
Method: as §1, §2

[8] = tested on: CT26 cell line (colon cancer); experiment: MTT cell viability assay, CT26; conditions: Mus musculus, 48 hours, read-out: half maximal inhibitory concentration (IC50), CT26
Method: as §1, §2

Row | Compound | IC50 [1] [µg/mL] | IC50 [2] [µg/mL] | IC50 [3] [µg/mL] | IC50 [4] [µg/mL] | anti cancer activity, in words (various tumor cells) | IC50 [5] [µg/mL] | IC50 [6] [µg/mL] | IC50 [7] [µg/mL] | IC50 [8] [µg/mL] | IC50 value of the solvent (50% cell death) (various tumor cells; DMSO content of the diluted drug, cell line not stated) [%]
1 | COC1=C(OC)[C@H](O)[C@H](C/C=C(\C)CC/C=C(\C)CC(O)C=C(C)C)[C@@H](C)C1=O (stereo partly shown) [Antrocamol LT1, 4-hydroxy-5-[9-hydroxy-3,7,11-trimethyldodeca-2,6,10-trienyl]-2,3-dimethoxy-6-methyl-cyclohex-2-enone] | > 10 | 0.057 ± 0.002 (≈ 0.14 µM) | 0.057 ± 0.009 (≈ 0.14 µM) | 0.093 ± 0.003 (≈ 0.229 µM) | predominant anti cancer activity | 0.014 ± 0.001 (≈ 0.0344 µM) | 0.99 ± 0.08 (≈ 2.44 µM) | 0.98 ± 0.05 (≈ 2.41 µM) | 0.07 ± 0.006 (≈ 0.172 µM) | –
2 | COC1=C(OC)[C@H](OC(C)=O)[C@H](C/C=C(\C)CC/C=C(\C)CC(O)C=C(C)C)[C@@H](C)C1=O (stereo partly shown) [Antrocamol LT2, 4-acetoxy-5-[9-hydroxy-3,7,11-trimethyldodeca-2,6,10-trienyl]-2,3-dimethoxy-6-methyl-cyclohex-2-enone] | > 10 | 0.69 ± 0.06 (≈ 1.54 µM) | 0.91 ± 0.08 (≈ 2.03 µM) | 1.06 ± 0.22 (≈ 2.36 µM) | predominant anti cancer activity | 0.59 ± 0.02 (≈ 1.32 µM) | 0.95 ± 0.11 (≈ 2.12 µM) | 1.03 ± 0.05 (≈ 2.3 µM) | 0.8 ± 0.03 (≈ 1.78 µM) | –
3 | C[S+](C)[O-] [DMSO] | – | – | – | – | – | – | – | – | – | 2.34
